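Growth conditions: 96-well plates. Treatment: test compound, 48 hours, 5 concentrations. Analysis: linear interpolation between bracketing concentrations; unreached endpoints set to highest concentration. Abbreviation: GI50, concentration required for 50% inhibition of growth.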 Activity calls are given as the source filed them. No stated cut-off is given here; in the data, active = GI50 up to about 1.1 µM and inactive = higher.
Experiments:
Test in all cases: NCI tumour cell line growth inhibition, 48 h
MCF7 = system: MCF7
HCT-116 = system: HCT-116
SF-539 = system: SF-539
SF-268 = system: SF-268
CAKI-1 = system: CAKI-1
LOX IMVI = system: LOX IMVI
HOP-62 = system: HOP-62
MDA-MB-435 = system: MDA-MB-435
HCC 2998 = system: HCC 2998
HT-29 = system: HT-29
CCRF-CEM = system: CCRF-CEM
HL-60 = system: HL-60
786-0 = system: 786-0
OVCAR-5 = system: OVCAR-5
IGROV-1 = system: IGROV-1
SN12C = system: SN12C
Malme-3M = system: Malme-3M
SK-MEL-5 = system: SK-MEL-5
A549 = system: A549
SK-MEL-28 = system: SK-MEL-28
NCI-H23 = system: NCI-H23
MDA-N = system: MDA-N
NCI-H460 = system: NCI-H460
NCI-H522 = system: NCI-H522
HOP-92 = system: HOP-92
SK-MEL-2 = system: SK-MEL-2
NCI-H226 = system: NCI-H226
RPMI-8226 = system: RPMI-8226
K562 = system: K562
UACC-62 = system: UACC-62
PC-3 = system: PC-3
Hs-578T = system: Hs-578T
NCI/ADR-RES = system: NCI/ADR-RES
T47D = system: T47D
A498 = system: A498
SNB-75 = system: SNB-75
SK-OV-3 = system: SK-OV-3
DU-145 = system: DU-145
UACC-257 = system: UACC-257
SW-620 = system: SW-620
U-251 = system: U-251
OVCAR-4 = system: OVCAR-4
EKVX = system: EKVX
RXF 393 = system: RXF 393
MOLT-4 = system: MOLT-4
SR = system: SR
KM12 = system: KM12
ACHN = system: ACHN
COLO 205 = system: COLO 205
MDA-MB-231 = system: MDA-MB-231
OVCAR-8 = system: OVCAR-8
HCT-15 = system: HCT-15
SF-295 = system: SF-295
M14 = system: M14
UO-31 = system: UO-31
TK-10 = system: TK-10
BT-549 = system: BT-549
OVCAR-3 = system: OVCAR-3

Measured: GI50

CCOC(=O)c1c(SCc2ccccc2)nc2c3ccccc3ccn12
> 100 µM: HCT-15
inactive: MCF7 > 100 µM | HCT-116 > 100 µM | SF-539 79.4 µM | SF-268 94 µM | CAKI-1 > 100 µM | LOX IMVI > 100 µM | HOP-62 40.1 µM | MDA-MB-435 > 100 µM | HCC 2998 > 100 µM | HT-29 > 100 µM | CCRF-CEM > 100 µM | HL-60 > 100 µM | 786-0 > 100 µM | OVCAR-5 > 100 µM | IGROV-1 38.9 µM | SN12C > 100 µM | Malme-3M 63.7 µM | SK-MEL-5 > 100 µM | A549 > 100 µM | SK-MEL-28 > 100 µM | NCI-H23 > 100 µM | MDA-N > 100 µM | NCI-H460 55.6 µM | NCI-H522 37.2 µM | HOP-92 1.72 µM | SK-MEL-2 > 100 µM | NCI-H226 33.7 µM | RPMI-8226 > 100 µM | K562 > 100 µM | UACC-62 > 100 µM | PC-3 > 100 µM | Hs-578T 21.4 µM | NCI/ADR-RES > 100 µM | T47D > 100 µM | A498 54.5 µM | SNB-75 25.9 µM | SK-OV-3 52.7 µM | DU-145 > 100 µM | UACC-257 > 100 µM | SW-620 > 100 µM | U-251 57.7 µM | OVCAR-4 56 µM | EKVX > 100 µM | RXF 393 70.6 µM | MOLT-4 > 100 µM | SR 47 µM | KM12 > 100 µM | ACHN 24 µM | COLO 205 > 100 µM | MDA-MB-231 > 100 µM | OVCAR-8 83.6 µM | SF-295 40.7 µM | M14 > 100 µM

Cc1ccccc1-n1c(=O)c2ncn(CCCl)c2n(-c2ccccc2C)c1=S
> 100 µM: HCT-15
inactive: MCF7 > 100 µM | HCT-116 > 100 µM | SF-539 > 100 µM | SF-268 > 100 µM | UO-31 > 100 µM | TK-10 > 100 µM | CAKI-1 > 100 µM | LOX IMVI > 100 µM | HOP-62 > 100 µM | MDA-MB-435 > 100 µM | HCC 2998 > 100 µM | HT-29 > 100 µM | CCRF-CEM > 100 µM | HL-60 > 100 µM | 786-0 > 100 µM | OVCAR-5 > 100 µM | IGROV-1 > 100 µM | SN12C > 100 µM | BT-549 > 100 µM | SK-MEL-5 > 100 µM | A549 > 100 µM | SK-MEL-28 > 100 µM | NCI-H23 > 100 µM | NCI-H460 > 100 µM | NCI-H522 38.5 µM | HOP-92 > 100 µM | SK-MEL-2 > 100 µM | NCI-H226 > 100 µM | RPMI-8226 > 100 µM | K562 > 100 µM | UACC-62 > 100 µM | PC-3 73.1 µM | NCI/ADR-RES > 100 µM | T47D > 100 µM | A498 > 100 µM | SNB-75 > 100 µM | SK-OV-3 > 100 µM | DU-145 > 100 µM | UACC-257 > 100 µM | OVCAR-3 > 100 µM | SW-620 > 100 µM | U-251 > 100 µM | OVCAR-4 > 100 µM | EKVX > 100 µM | RXF 393 > 100 µM | MOLT-4 > 100 µM | SR > 100 µM | KM12 > 100 µM | ACHN > 100 µM | COLO 205 > 100 µM | MDA-MB-231 > 100 µM | OVCAR-8 > 100 µM | SF-295 > 100 µM | M14 > 100 µM

From ChEMBL document CHEMBL1201862, “PubChem BioAssay data set” (2004)
